Reference: publication PMC3930583 (PLoS Pathogens, 2014)

Assays:
GST-AvrBsT [1] = biological target: T1, GST-AvrBsT (Xanthomonas euvesicatoria, UniProt A0ABS8LK00); format: biochemical
GST-AvrBsT [2] = biological target: T1, GST-AvrBsT; format: biochemical; remark: listed apart in the source

SMILES | 14C autoacetylation, SDS-PAGE autoradiography (GST-AvrBsT [1]) | 14C autoacetylation with and without IP6, autoradiography (GST-AvrBsT [2])
CC(=O)SCCNC(=O)CCNC(=O)[C@H](O)C(C)(C)COP(=O)(O)OP(=O)(O)OC[C@H]1O[C@@H](n2cnc3c(N)ncnc32)[C@H](O)[C@@H]1OP(=O)(O)O [14C-acetyl-coenzyme A] | Wild-type GST-AvrBsT activity resulted in auto-acetylation of the enzyme and trans-acetylation of GST-ACIP1 | 
O=P(O)(O)O[C@H]1[C@H](OP(=O)(O)O)[C@@H](OP(=O)(O)O)[C@H](OP(=O)(O)O)[C@@H](OP(=O)(O)O)[C@H]1OP(=O)(O)O [inositol hexakisphosphate] |  | Auto-acetylation of GST-AvrBsT was detected in the presence of IP6 but not its absence
